Data as given in patent US11708344B2, “Flavone derivatives for the treatment and prophylaxis of hepatitis B virus disease” (Hoffmann-La Roche Inc., priority 2018, dated 2023).
Like-named read-outs stand apart in the source and are kept apart here.

Assays:
[1] = system: HBsAg in HBV-infected PHH; experiment: Cryopreserved primary human hepatocytes (PHH) HBV infection assay, extracellular HBsAg (CLIA); assay type: cell-based
In short: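 Cryopreserved PHH were infected with 5.8×10^6 HBV genome equivalents in medium with 4% PEG8000 and 1% DMSO. After 9 days of treatment, extracellular HBsAg was measured by CLIA, and IC50 was derived from a 4-parameter logistic fit.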

[2] = Human microsome stability assay; assay type: in vitro ADME; settings: human liver microsomes, 1 μM test compound, 0.5 mg/mL microsomal protein, 37° C., pH 7.4, 0-30 minutes
In short: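 Compound (1 μM) incubated at 37 °C with human liver microsomes (0.5 mg/mL protein) in 100 mM potassium phosphate, pH 7.4, after 10 min preincubation; started with NADPH regenerating system. Sampled at 0–30 min, quenched with cold ACN; remaining parent quantified by LC-MS/MS, with no-NADPH controls.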

[3] = system: HBeAg (surrogate marker for cccDNA) in HepDES19 cells; experiment: Engineered HepDES19 primary screen assay (HBeAg ELISA); assay type: cell-based, HBV; settings: Hepatitis B virus, HepDES19, 120 h, read-out: IC50 (HBeAg level, HepDES19 primary screen assay), HepDES19 cells, 5 days compound incubation, HBeAg ELISA
In short: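 HepDES19 cells were induced by Tet withdrawal for 8 days, then treated with half-log compound dilutions (1% DMSO final) for 5 days at 37 °C. HBeAg was measured by ELISA as the cccDNA surrogate, viability by CCK-8, and IC50 from a 4-parameter logistic fit.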

[4] = Hepatitis B virus, Hepatocyte, 216 h, read-out: HBsAg IC50, Cryopreserved PHH infected with HBV, 9 days post-compound treatment, extracellular HBsAg

In the case of `Cc1cc(-c2cc(=O)c3cccc(Cl)c3o2)c(O[C@H]2C[C@@H](C(=O)O)C2)cc1Cl` [Example B012-A, Cis-3-[5-chloro-2-(8-chloro-4-oxo-chromen-2-yl)-4-methyl-phenoxy]cyclobutanecarboxylic acid], the IC50 ([1]; read-out: HBsAg IC50, Cryopreserved PHH infected with HBV, 9 days post-compound treatment, extracellular HBsAg) is reported as 6.01 µM, the “Clearance of Human microsome” value [2] is reported as 6.15 mL/min/kg and the IC50 [3] is reported as 3.27 µM.
In the case of `O=c1cc(-c2ccccc2O[C@H]2C[C@@H](C(=O)O)C2)oc2c(Br)cccc12` [Example B022-A, Cis-3-[2-(8-bromo-4-oxo-chromen-2-yl)phenoxy]cyclobutanecarboxylic acid], the IC50 [1, 4] is reported as 3.83 µM, the “Clearance of Human microsome” value [2] is reported as 6.15 mL/min/kg and the IC50 [3] is reported as 0.112 µM.
In the case of `O=C(O)CCOc1cc(OC(F)(F)F)ccc1-c1cc(=O)c2cccc(Cl)c2o1` [Example A009, 3-[2-(8-chloro-4-oxo-chromen-2-yl)-5-(trifluoromethoxy)phenoxy]propanoic acid], the IC50 [1, 4] is reported as 1.48 µM, the “Clearance of Human microsome” value [2] is reported as 6.57 mL/min/kg and the IC50 [3] is reported as 0.403 µM.
For `O=C(O)CCOc1cc(Br)cnc1-c1cc(=O)c2cccc(Cl)c2o1` [Example A026, 3-[[5-bromo-2-(8-chloro-4-oxo-chromen-2-yl)-3-pyridyl]oxy]propanoic acid], the IC50 [1, 4] was 2.97 µM, the “Clearance of Human microsome” value [2] was 6.15 mL/min/kg and the IC50 [3] was 2.97 µM.
With `CCOc1cc(-c2cc(=O)c3cccc(Cl)c3o2)c(OCCO[C@H]2C[C@@H](C(=O)O)C2)cc1OC` [Example C084, cis-3-[2-[2-(8-chloro-4-oxo-chromen-2-yl)-4-ethoxy-5-methoxy-phenoxy]ethoxy]cyclobutanecarboxylic acid] the IC50 [1, 4] was 5.21 µM, the “Clearance of Human microsome” value [2] was 6.15 mL/min/kg and the IC50 [3] was 15.1 µM.
